US10758552B2, “Pharmaceutical composition containing combinations of nicotinamide and 5-aminosalicylic acid for beneficially influencing the intestinal microbiota and/or treating gastrointestinal inflammation” (CONARIS RESEARCH INSTITUTE AG, priority 2013, dated 2020)

Key:
[1] = system: dextrane sodium sulfate (DSS) colitis model in mice; assay: DSS colitis model in mice on Trp/Nia/NAM-free diet, histological scoring of the colon (Example 1); type: in vivo, C57BL/6J mice; conditions: 1.5% DSS
Procedure: In order to characterise the combined effect of 5-ASA and nicotinamide (NAM) in controlled release formulations for targeted delivery of both substances to the intestinal epithelium, a study was conducted in a dextrane sodium sulfate (DSS) colitis model in mice. In this study, a controlled release granule formulation for was tested in two different doses (30 mg/kg and 60 mg/kg). As a representative controlled release formulation for 5-ASA, 5-ASA granules ([…]®; Ferring Pharmaceuticals, Saint-Prex, Switzerland) were used both alone and in combination with the NAM granules. The controlled release formulation for NAM is a granulate of 25% nicotinamide, 70% dibasic calcium phosphate and 5% Povidone K30. The mean particle size was 234 μm. […] Filtering removed particles with a size of less than 355 μm. Control granules replaced NAM with an equivalent amount of dibasic calcium phosphate. Male C57BL/6J mice (specific pathogen free; Charles River Laboratories, Saint-Germain-sur-l'Arbresle, France) were taken into the test facility at >12 weeks of age and acclimatised for 1 week. The diet during the acclimatisation phase was diet A4, produced by SAFE (Scientific Animal Food and Engineering, Augy, France). […] The fixed doses for the other granules were calculated in an analogous fashion. […]

murine DSS colitis model = assay: DSS colitis model in mice on normal diet, disease activity index (DAI) scoring (Example 2); type: in vivo, C57BL/6J mice; conditions: for % improvement of DAI vs DSS: granules in food, 2.5% DSS
Procedure: In a second and much larger study, NAM and 5-ASA controlled release granules were used again in the murine DSS colitis model (see Example 1) to confirm the anti-inflammatory properties of NAM in one low dose (30 mg/kg) and to investigate two higher dosages (120 or 240 mg/kg) not administered in the first study. […] One very important difference to the first study described in Example 1 was the fact that the mice received normal food with normal levels of tryptophan, nicotinic acid and nicotinamide (SAFE diet A4; Scientific Animal Food and Engineering, Augy, France; see Example 1). Therefore, any effects observed in this second study cannot be due to supplementation of NAM to NA/NAM/Trp-starved mice. In the present study, the same DSS colitis model in C57BL/6J mice as in Example 1 was used, albeit with some minor modifications: 2.5% DSS were used to provide a stronger DSS challenge. The animals were acclimatised for one week to stabilise their microbiota, randomised into 9 different groups as illustrated in the following Table 1 and then kept for 10 days on the different diets (days -10 to -1) before inducing colitis by DSS in the drinking water (day 0-day 6) followed by a washout period with normal drinking water (day 6-day 9). All groups received 2.5% DSS. [table] [table] The 5-ASA granules were the same as in Example 1. Their 5-ASA content was 52% (one granule weighed 0.5 mg and contained 0.26 mg of 5-ASA). The 5-ASA granules were mixed with regular food for preparation of single-use food aliquots, which were stored frozen at -20° C. and thawed daily prior to feeding the mice. […] Therefore, the food was prepared with 2.88 g of granules per kg of food (for the 150 mg/kg dose) or 1.44 g/kg (for the 75 mg/kg dose). The NAM granules of the present example were produced by the same manufacturer and in a similar formulation (diameter: 0.355-0.500 mm; NAM content: 19.1%) as in Example 1. Three kinds of food were prepared in an analogous fashion to the food with 5-ASA granules as described above. […] Therefore, the food preparation for the three dose groups was performed as follows: 1.57 g of granules per kg of food for the 30 mg/kg dose group, 6.28 g of granules per kg of food for the 120 mg/kg dose group and 12.56 g of granules per kg of food for the 240 mg/kg dose group. For the control group, food without granules was processed in the same fashion as the granule-containing food preparations described above in order to exclude preparation artefacts. After euthanasia, the colon was analysed and the disease activity index (DAI; score 0-9) was scored using an adapted DAI system based on […] et al. 2005 (Am. J. Physiol. Gastrointest. Liver Physiol. 288:[…]). As no visible blood was observed, the blood scoring parameter according to […] et al. was changed to scoring the signal strength for occult blood in feces detected by the ColoScreen test (Helena Laboratories, Beaumont, Tex., USA). This signal strength scoring was performed independently by two investigators blinded to the identity of the samples. [table] All comparisons were analysed using the […] for two independent samples in the StatXact software (Cytel, Cambridge, Mass., USA).

Row | Structure (SMILES) | histological score of the colonic mucosa ([1]; 5-ASA granules alone in diet, 150 mg/kg) | stool consistency (diarrhea) (murine DSS colitis model; 75 mg/kg 5-ASA alone) | % improvement of DAI vs DSS (murine DSS colitis model; 75 mg/kg 5-ASA) | stool consistency (diarrhea) (murine DSS colitis model; 150 mg/kg 5-ASA alone) | % improvement of DAI vs DSS (murine DSS colitis model; 150 mg/kg 5-ASA) | mice having blood in the feces (occult blood) (murine DSS colitis model; 150 mg/kg 5-ASA, control mice 100%, day of necropsy) | macroscopic inflammation score, dose effect (murine DSS colitis model; 5-ASA alone, 75 vs 150 mg/kg) | disease activity index (DAI), dose effect (murine DSS colitis model; doubling the dose of 5-ASA from 75 to 150 mg/kg) | histological score of the colonic mucosa ([1]; NAM granules alone in diet, 30 or 60 mg/kg) | % improvement of DAI vs DSS (murine DSS colitis model; 30 mg/kg NAM) | % improvement of DAI vs DSS (murine DSS colitis model; 120 mg/kg NAM) | % improvement of DAI vs DSS (murine DSS colitis model; 240 mg/kg NAM) | disease activity index (DAI), dose effect (murine DSS colitis model; NAM alone from 30 to 240 mg/kg) | macroscopic inflammation score, dose effect (murine DSS colitis model; NAM alone, 30 to 240 mg/kg) | stool consistency (diarrhea) (murine DSS colitis model; different NAM doses alone)
1 | Nc1ccc(O)c(C(=O)O)c1 [5-ASA, 5-aminosalicylic acid] | trend towards histological improvement | hardly improved | 28% | significant effect | 43% | 53% | no difference | stronger decrease of the DAI |  |  |  |  |  |  | 
2 | NC(=O)c1cccnc1 [NAM, nicotinamide] |  |  |  |  |  |  |  |  | trend towards histological improvement | 39% | 40% | 40% | no dose response | slight dose-dependent effect | hardly improved
